Literature values, collected in publication PMC7867784 (Translational Lung Cancer Research, 2021).

Key:
[1] = tested on: RET-fusion positive NSCLC cells; settings: cited from earlier work
RET-rearranged NSCLC = settings: 600 mg BID, non-Japanese RET rearrangement NSCLC, out of 8 patients; cited from earlier work

SMILES: CCc1cc2c(cc1N1CCC(N3CCOCC3)CC1)C(C)(C)c1[nH]c3cc(C#N)ccc3c1C2=O [alectinib]
- growth of RET-rearranged tumor cells ([1]; in vitro and in vivo, pre-clinical studies): inhibit the growth
- IC50 ([1]; read-out: IC50 in RET-fusion positive NSCLC cells): < 300 nM
- patients with PR (RET-rearranged NSCLC): 4
